Test system: Endogenous Huntingtin Protein
Assay: Endogenous Huntingtin Protein Assay (Meso Scale Discovery ELISA-based electrochemiluminescence)
Format: cell-based
Conditions: MSD plates coated with MW1 (expanded polyglutamine) or MAB2166 capture antibody; lysates
Protocol: Compounds of Formula (I) were tested using the Meso Scale Discovery (MSD) Assay provided in International Application No. PCT/US2016/066042, filed on Dec. 11, 2016 and claiming priority to United States Provisional Application U.S. 62/265,652 filed on Dec. 10, 2015, the entire contents of which are incorporated herein by reference.
The Endogenous Huntingtin Protein assay used in Example 1 was developed using the ELISA-based MSD electrochemiluminescence assay platform.
Endogenous Huntingtin Protein Assay
Meso Scale Discovery (MSD) 96-well or 384-well plates were coated overnight at 4° C. with MW1 (expanded polyglutamine) or MAB2166 monoclonal antibody (for capture) at a concentration of 1 μg/mL in PBS (30 μL per well). Plates were then washed three times with 300 μL wash buffer (0.05% Tween-20 in PBS) and blocked (100 μL blocking buffer; 5% BSA in PBS) for 4-5 hours at room temperature with rotational shaking and then washed three times with wash buffer.
Samples (25 μL) were transferred to the antibody-coated MSD plate and incubated overnight at 4° C. After removal of the lysates, the plate was washed three times with wash buffer, and 25 μL of #5656S (Cell signaling; rabbit monoclonal) secondary antibody (diluted to 0.25 μg/mL in 0.05% Tween-20 in blocking buffer) was added to each well and incubated with shaking for 1 Hour at room temperature. Following incubation with the secondary antibody, the wells were rinsed with wash buffer after which 25 μL of goat anti-rabbit SULFO TAG secondary detection antibody (required aspect of the MSD system) (diluted to 0.25 μg/mL in 0.05% Tween-20 in blocking buffer) was added to each well and incubated with shaking for 1 hour at room temperature. After rinsing three times with wash buffer, 150 μL of read buffer T with surfactant (MSD) were added to each empty well, and the plate was imaged on a SI 6000 imager (MSD) according to manufacturers' instructions provided for 96- or 384-well plates.

SMILES | IC50
CC1(C)CC(n2nnc3cc(-c4cc(O)c(-c5cn[nH]c5)cc4F)nnc32)CC(C)(C)N1 [Cpd 33, 4-fluoro-2-(1H-pyrazol-4-yl)-5-[3-(2,2,6,6-tetramethylpiperidin-4-yl)-3H-[1,2,3]triazolo[4,5-c]pyridazin-6-yl]phenol] | 500 to 1000 nM
CC1(C)CC(n2nnc3cc(-c4ccc(-n5cccn5)cc4O)nnc32)CC(C)(C)N1 [Cpd 34, 5-(1H-pyrazol-1-yl)-2-[3-(2,2,6,6-tetramethylpiperidin-4-yl)-3H-[1,2,3]triazolo[4,5-c]pyridazin-6-yl]phenol] | 100 to 500 nM
CC1(C)CC(n2nnc3cc(-c4cc(F)c(-c5cn[nH]c5)cc4O)nnc32)CC(C)(C)N1 [Cpd 35, 4-fluoro-5-(1H-pyrazol-4-yl)-2-[3-(2,2,6,6-tetramethylpiperidin-4-yl)-3H-[1,2,3]triazolo[4,5-c]pyridazin-6-yl]phenol] | ≤ 100 nM
Fc1c(-c2cn[nH]c2)ccc(-c2cc3c(nn2)N(C2CC4CCC(C2)N4)CC3)c1F (stereo not drawn) [Cpd 36, 7-[(3-exo)-8-azabicyclo[3.2.1]oct-3-yl]-3-[2,3-difluoro-4-(1H-pyrazol-4-yl)phenyl]-6,7-dihydro-5H-pyrrolo[2,3-c]pyridazine] | 100 to 500 nM
Cn1ccc(-c2ccc(-c3cc4nnn(C5CC(C)(C)NC(C)(C)C5)c4nn3)c(O)c2)cc1=O [Cpd 37, 4-{3-hydroxy-4-[3-(2,2,6,6-tetramethylpiperidin-4-yl)-3H-[1,2,3]triazolo[4,5-c]pyridazin-6-yl]phenyl}-1-methylpyridin-2(1H)-one] | ≤ 100 nM
CC1(C)CC(n2nnc3cc(-c4ccc(-c5ccc(O)cc5)cc4O)nnc32)CC(C)(C)N1 [Cpd 38, 4-[3-(2,2,6,6-tetramethylpiperidin-4-yl)-3H-[1,2,3]triazolo[4,5-c]pyridazin-6-yl]biphenyl-3,4′-diol] | ≤ 100 nM
Cn1cc(-c2ccc(-c3cc4nnn(C5CC(C)(C)NC(C)(C)C5)c4nn3)c(O)c2)cn1 [Cpd 39, 5-(1-methyl-1H-pyrazol-4-yl)-2-[3-(2,2,6,6-tetramethylpiperidin-4-yl)-3H-[1,2,3]triazolo[4,5-c]pyridazin-6-yl]phenol] | ≤ 100 nM
COc1nc2cc(-c3ccc(-c4cn[nH]c4)cc3O)nnc2n1C1CC(C)(C)NC(C)(C)C1 [Cpd 40, 2-[6-methoxy-7-(2,2,6,6-tetramethylpiperidin-4-yl)-7H-imidazo[4,5-c]pyridazin-3-yl]-5-(1H-pyrazol-4-yl)phenol] | 3000 to 9000 nM
CNc1nc2cc(-c3ccc(-c4cn[nH]c4)cc3O)nnc2n1C1CC(C)(C)NC(C)(C)C1 [Cpd 42, 2-[6-(methylamino)-7-(2,2,6,6-tetramethylpiperidin-4-yl)-7H-imidazo[4,5-c]pyridazin-3-yl]-5-(1H-pyrazol-4-yl)phenol] | 100 to 500 nM
Oc1cc(-c2cn[nH]c2)ccc1-c1cc2[nH]cc(N3CCNCC3)c2nn1 [Cpd 43, 2-[7-(piperazin-1-yl)-5H-pyrrolo[3,2-c]pyridazin-3-yl]-5-(1H-pyrazol-4-yl)phenol] | 500 to 1000 nM
CCn1cc(-c2ccc(-c3cc4nnn(C5CC(C)(C)NC(C)(C)C5)c4nn3)c(O)c2)cn1 [Cpd 46, 5-(1-ethyl-1H-pyrazol-4-yl)-2-[3-(2,2,6,6-tetramethylpiperidin-4-yl)-3H-[1,2,3]triazolo[4,5-c]pyridazin-6-yl]phenol] | 500 to 1000 nM
CCCn1cc(-c2ccc(-c3cc4nnn(C5CC(C)(C)NC(C)(C)C5)c4nn3)c(O)c2)cn1 [Cpd 47, 5-(1-propyl-1H-pyrazol-4-yl)-2-[3-(2,2,6,6-tetramethylpiperidin-4-yl)-3H-[1,2,3]triazolo[4,5-c]pyridazin-6-yl]phenol] | 1000 to 3000 nM
CC1(C)CC(n2nnc3cc(-c4ccc(-c5cc[nH]n5)cc4O)nnc32)CC(C)(C)N1 [Cpd 48, 5-(1H-pyrazol-3-yl)-2-[3-(2,2,6,6-tetramethylpiperidin-4-yl)-3H-[1,2,3]triazolo[4,5-c]pyridazin-6-yl]phenol] | 100 to 500 nM
CCNc1nc2cc(-c3ccc(-c4cn[nH]c4)cc3O)nnc2n1C1CC(C)(C)NC(C)(C)C1 [Cpd 49, 2-[6-(ethylamino)-7-(2,2,6,6-tetramethylpiperidin-4-yl)-7H-imidazo[4,5-c]pyridazin-3-yl]-5-(1H-pyrazol-4-yl)phenol] | 1000 to 3000 nM
Cn1nccc1-c1ccc(-c2cc3nnn(C4CC(C)(C)NC(C)(C)C4)c3nn2)c(O)c1 [Cpd 50, 5-(1-methyl-1H-pyrazol-5-yl)-2-[3-(2,2,6,6-tetramethylpiperidin-4-yl)-3H-[1,2,3]triazolo[4,5-c]pyridazin-6-yl]phenol] | 100 to 500 nM
Cn1ccc(-c2ccc(-c3cc4nnn(C5CC(C)(C)NC(C)(C)C5)c4nn3)c(O)c2)n1 [Cpd 51, 5-(1-methyl-1H-pyrazol-3-yl)-2-[3-(2,2,6,6-tetramethylpiperidin-4-yl)-3H-[1,2,3]triazolo[4,5-c]pyridazin-6-yl]phenol] | 100 to 500 nM
CN1C(C)(C)CC(n2nnc3cc(-c4ccc(-c5cn[nH]c5)cc4O)nnc32)CC1(C)C [Cpd 52, 2-[3-(1,2,2,6,6-pentamethylpiperidin-4-yl)-3H-[1,2,3]triazolo[4,5-c]pyridazin-6-yl]-5-(1H-pyrazol-4-yl)phenol] | 500 to 1000 nM
CC1(C)CC(n2nnc3cc(-c4cc(F)c(-c5ccc(O)cc5)cc4O)nnc32)CC(C)(C)N1 [Cpd 53, 6-fluoro-4-[3-(2,2,6,6-tetramethylpiperidin-4-yl)-3H-[1,2,3]triazolo[4,5-c]pyridazin-6-yl][1,1′-biphenyl]-3,4′-diol] | ≤ 100 nM
CC1(C)CC(n2nnc3cc(-c4ccc(-c5cn[nH]c5)c(F)c4O)nnc32)CC(C)(C)N1 [Cpd 54, 2-fluoro-3-(1H-pyrazol-4-yl)-6-[3-(2,2,6,6-tetramethylpiperidin-4-yl)-3H-[1,2,3]triazolo[4,5-c]pyridazin-6-yl]phenol] | ≤ 100 nM
C[C@]12CC[C@](C)(CC(n3nnc4cc(-c5ccc(-c6cn[nH]c6)cc5O)nnc43)C1)N2 (stereo partly drawn) [Cpd 57, 2-{3-[(1R,5S)-1,5-dimethyl-8-azabicyclo[3.2.1]octan-3-yl]-3H-[1,2,3]triazolo[4,5-c]pyridazin-6-yl}-5-(1H-pyrazol-4-yl)phenol] | ≤ 100 nM

Continued, values first:

IC50 | SMILES
100 to 500 nM | Cn1ccc(-c2cc(O)c(-c3cc4nnn(C5CC(C)(C)NC(C)(C)C5)c4nn3)cc2F)cc1=O [Cpd 55, 4-{2-fluoro-5-hydroxy-4-[3-(2,2,6,6-tetramethylpiperidin-4-yl)-3H-[1,2,3]triazolo[4,5-c]pyridazin-6-yl]phenyl}-1-methylpyridin-2(1H)-one]
100 to 500 nM | CC1(C)CC(n2nnc3cc(-c4ccc(-c5cn[nH]c5)cc4O)nnc32)CCN1 (stereo not drawn) [Cpd 56, 2-[3-(2,2-dimethylpiperidin-4-yl)-3H-[1,2,3]triazolo[4,5-c]pyridazin-6-yl]-5-(1H-pyrazol-4-yl)phenol]
100 to 500 nM | CC1(C)CC(n2nnc3cc(-c4cc(O)c(-c5cn[nH]c5)cc4O)nnc32)CC(C)(C)N1 [Cpd 58, 2-(1H-pyrazol-4-yl)-5-[3-(2,2,6,6-tetramethylpiperidin-4-yl)-3H-[1,2,3]triazolo[4,5-c]pyridazin-6-yl]benzene-1,4-diol]
≤ 100 nM | CC1(C)CC(n2nnc3cc(-c4c(O)cc(-c5cn[nH]c5)cc4F)nnc32)CC(C)(C)N1 [Cpd 59, 3-fluoro-5-(1H-pyrazol-4-yl)-2-[3-(2,2,6,6-tetramethylpiperidin-4-yl)-3H-[1,2,3]triazolo[4,5-c]pyridazin-6-yl]phenol]
1000 to 3000 nM | CC1(C)CC(n2nnc3cc(-c4ccc(-c5cnccn5)cc4O)nnc32)CC(C)(C)N1 [Cpd 60, 5-(pyrazin-2-yl)-2-[3-(2,2,6,6-tetramethylpiperidin-4-yl)-3H-[1,2,3]triazolo[4,5-c]pyridazin-6-yl]phenol]
1000 to 3000 nM | CC1(C)CC(n2nnc3cc(-c4ccc(-c5ccccn5)cc4O)nnc32)CC(C)(C)N1 [Cpd 61, 5-(pyridin-2-yl)-2-[3-(2,2,6,6-tetramethylpiperidin-4-yl)-3H-[1,2,3]triazolo[4,5-c]pyridazin-6-yl]phenol]
≤ 100 nM | Cn1cc(-c2cc(O)c(-c3cc4nnn(C5CC(C)(C)NC(C)(C)C5)c4nn3)cc2F)cn1 [Cpd 62, 4-fluoro-5-(1-methyl-1H-pyrazol-4-yl)-2-[3-(2,2,6,6-tetramethylpiperidin-4-yl)-3H-[1,2,3]triazolo[4,5-c]pyridazin-6-yl]phenol]
≤ 100 nM | CC1(C)CC(n2nnc3cc(-c4ccc(-n5cncn5)cc4O)nnc32)CC(C)(C)N1 [Cpd 63, 2-[3-(2,2,6,6-tetramethylpiperidin-4-yl)-3H-[1,2,3]triazolo[4,5-c]pyridazin-6-yl]-5-(1H-1,2,4-triazol-1-yl)phenol]
1000 to 3000 nM | CC1(C)CC(n2nnc3cc(-c4ccc(-n5cnnc5)cc4O)nnc32)CC(C)(C)N1 [Cpd 64, 2-[3-(2,2,6,6-tetramethylpiperidin-4-yl)-3H-[1,2,3]triazolo[4,5-c]pyridazin-6-yl]-5-(4H-1,2,4-triazol-4-yl)phenol]
500 to 1000 nM | CC1(C)CC(n2nnc3cc(-c4ccc(-c5cccnc5)cc4O)nnc32)CC(C)(C)N1 [Cpd 65, 5-(pyridin-3-yl)-2-[3-(2,2,6,6-tetramethylpiperidin-4-yl)-3H-[1,2,3]triazolo[4,5-c]pyridazin-6-yl]phenol]
